{
  "source": "PubChem BioAssay (NCI)",
  "note": "Where “and” joins values, the source holds several entries; their conditions need not be identical. Equal entries are not always repeated.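 Test compounds were applied to cells in 96-well plates for 48 hours at 5 doses. GI50 = concentration required for 50% inhibition of growth. TGI marks complete inhibition of growth.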",
  "data": [
    {"test_system": "SNB-75 CNS", "experiment": "NCI anticancer screen, dose series, 48 h", "units": {"GI50": "µM"}, "values": [
      {"smiles": "COc1ccc(/C(=N/Nc2ccc([N+](=O)[O-])cc2)Sc2cc(Cl)c(C)cc2S(N)(=O)=O)cc1", "GI50": 2.68, "TGI": "6.39 µM"},
      {"smiles": "NC(N)=NC(N)=Nc1cc2ccccc2c2ccccc12", "GI50": 5.12, "TGI": "19.9 µM"},
      {"smiles": "CC12CCCC(CC(=O)c3[nH]c4ccccc4c31)C2", "note": "(stereo not given)", "GI50": 0.204, "TGI": "21.7 µM"},
      {"smiles": "CN1C(NC(=O)c2ccc(Cl)nc2)=NS(=O)(=O)c2cc(Cl)ccc21", "GI50": "> 100", "TGI": "> 100 µM"},
      {"smiles": "Cc1cc(C2CCCCC2)n(O)c(=O)c1", "GI50": 1.96, "TGI": "> 100 µM and 58.1 µM"},
      {"smiles": "CN(C)C(=S)SN(C)C(=O)Nc1ccccc1", "TGI": "> 92.1 µM"},
      {"smiles": "Cc1[nH]c(N=Nc2ccccc2)nc1N=Nc1ccccc1", "GI50": 1.66, "TGI": "12.5 µM"},
      {"smiles": "COc1ccc(-c2cc3c(nn2)-c2ccccc2C3=O)cc1", "GI50": "> 100", "TGI": "> 100 µM"},
      {"smiles": "N#Cc1cnsc1", "TGI": "> 100 µM"},
      {"smiles": "COc1ccc(S(=O)(=O)N(Cc2ccc3c(n2)C=CC(C)(C)O3)C2CCC2)cc1OC", "GI50": "< 0.01", "TGI": "0.238 µM"},
      {"smiles": "C[C@]12CC[C@@H]3c4ccc(O)cc4CC[C@H]3[C@@H]1CC[C@@H]2NS(=O)(=O)c1ccc(C(F)(F)F)cc1", "GI50": 1.67, "TGI": "3.6 µM"},
      {"smiles": "COc1ccc(C2CC(=O)c3c(O)c(OC)c(OC)c(OC)c3O2)c(O)c1", "note": "(stereo not given)", "GI50": 0.0625, "TGI": "0.858 µM"},
      {"smiles": "CC(=O)c1ccc(NC(=O)/C(Cc2ccccn2)=N/NC(=O)C[N+](C)(C)C)cc1", "TGI": "> 100 µM"},
      {"smiles": "O=C(CCCSc1nc(-c2ccc(Cl)cc2)cc(-c2ccc(Cl)cc2)n1)NO", "GI50": 2.1, "TGI": "12 µM"}
    ]},
    {"test_system": "SW-620 colon", "experiment": "NCI anticancer screen, dose series, 48 h", "units": {"GI50": "µM", "TGI": "µM"}, "values": [
      {"smiles": "COc1ccc(/C(=N/Nc2ccc([N+](=O)[O-])cc2)Sc2cc(Cl)c(C)cc2S(N)(=O)=O)cc1", "GI50": 5.86, "TGI": 18.2},
      {"smiles": "NC(N)=NC(N)=Nc1cc2ccccc2c2ccccc12", "GI50": 6.5, "TGI": 21.4},
      {"smiles": "CC12CCCC(CC(=O)c3[nH]c4ccccc4c31)C2", "note": "(stereo not given)", "GI50": 0.426, "TGI": "> 100"},
      {"smiles": "CN1C(NC(=O)c2ccc(Cl)nc2)=NS(=O)(=O)c2cc(Cl)ccc21", "GI50": "> 100", "TGI": "> 100"},
      {"smiles": "Cc1cc(C2CCCCC2)n(O)c(=O)c1", "GI50": 3.38, "TGI": "> 100"},
      {"smiles": "CN(C)C(=S)SN(C)C(=O)Nc1ccccc1", "TGI": 42.6},
      {"smiles": "Cc1[nH]c(N=Nc2ccccc2)nc1N=Nc1ccccc1", "GI50": 4.7, "TGI": "> 56.7"},
      {"smiles": "COc1ccc(-c2cc3c(nn2)-c2ccccc2C3=O)cc1", "GI50": 72.7, "TGI": "> 100"},
      {"smiles": "N#Cc1cnsc1", "TGI": "> 100"},
      {"smiles": "COc1ccc(S(=O)(=O)N(Cc2ccc3c(n2)C=CC(C)(C)O3)C2CCC2)cc1OC", "GI50": "< 0.01", "TGI": "> 35.1"},
      {"smiles": "C[C@]12CC[C@@H]3c4ccc(O)cc4CC[C@H]3[C@@H]1CC[C@@H]2NS(=O)(=O)c1ccc(C(F)(F)F)cc1", "GI50": 3.23, "TGI": 10.8},
      {"smiles": "COc1ccc(C2CC(=O)c3c(O)c(OC)c(OC)c(OC)c3O2)c(O)c1", "note": "(stereo not given)", "GI50": 0.0484, "TGI": 21.4},
      {"smiles": "CC(=O)c1ccc(NC(=O)/C(Cc2ccccn2)=N/NC(=O)C[N+](C)(C)C)cc1", "TGI": "> 100"},
      {"smiles": "O=C(CCCSc1nc(-c2ccc(Cl)cc2)cc(-c2ccc(Cl)cc2)n1)NO", "GI50": 0.838, "TGI": 11.5}
    ]},
    {"test_system": "ACHN renal", "experiment": "NCI anticancer screen, dose series, 48 h", "units": {"GI50": "µM", "TGI": "µM"}, "values": [
      {"smiles": "COc1ccc(/C(=N/Nc2ccc([N+](=O)[O-])cc2)Sc2cc(Cl)c(C)cc2S(N)(=O)=O)cc1", "GI50": 6.34, "TGI": 17.5},
      {"smiles": "NC(N)=NC(N)=Nc1cc2ccccc2c2ccccc12", "GI50": 5.07, "TGI": 17.3},
      {"smiles": "CC12CCCC(CC(=O)c3[nH]c4ccccc4c31)C2", "note": "(stereo not given)", "GI50": 0.856, "TGI": "> 100"},
      {"smiles": "CN1C(NC(=O)c2ccc(Cl)nc2)=NS(=O)(=O)c2cc(Cl)ccc21", "GI50": "> 100", "TGI": "> 100"},
      {"smiles": "Cc1cc(C2CCCCC2)n(O)c(=O)c1", "GI50": 1.06, "TGI": "> 100"},
      {"smiles": "CN(C)C(=S)SN(C)C(=O)Nc1ccccc1", "TGI": "> 96.4"},
      {"smiles": "Cc1[nH]c(N=Nc2ccccc2)nc1N=Nc1ccccc1", "GI50": 2.15, "TGI": 7.89},
      {"smiles": "COc1ccc(-c2cc3c(nn2)-c2ccccc2C3=O)cc1", "GI50": "> 100", "TGI": "> 100"},
      {"smiles": "N#Cc1cnsc1", "TGI": "> 100"},
      {"smiles": "COc1ccc(S(=O)(=O)N(Cc2ccc3c(n2)C=CC(C)(C)O3)C2CCC2)cc1OC", "GI50": "< 0.01", "TGI": 0.0734},
      {"smiles": "C[C@]12CC[C@@H]3c4ccc(O)cc4CC[C@H]3[C@@H]1CC[C@@H]2NS(=O)(=O)c1ccc(C(F)(F)F)cc1", "GI50": 1.63, "TGI": 3.06},
      {"smiles": "COc1ccc(C2CC(=O)c3c(O)c(OC)c(OC)c(OC)c3O2)c(O)c1", "note": "(stereo not given)", "GI50": 1.2, "TGI": 58.2},
      {"smiles": "CC(=O)c1ccc(NC(=O)/C(Cc2ccccn2)=N/NC(=O)C[N+](C)(C)C)cc1", "TGI": "> 100"},
      {"smiles": "O=C(CCCSc1nc(-c2ccc(Cl)cc2)cc(-c2ccc(Cl)cc2)n1)NO", "GI50": 0.387, "TGI": 10.4}
    ]},
    {"test_system": "786-0 renal", "experiment": "NCI anticancer screen, dose series, 48 h", "units": {"GI50": "µM", "TGI": "µM"}, "values": [
      {"smiles": "COc1ccc(/C(=N/Nc2ccc([N+](=O)[O-])cc2)Sc2cc(Cl)c(C)cc2S(N)(=O)=O)cc1", "GI50": 4.21, "TGI": 14.9},
      {"smiles": "NC(N)=NC(N)=Nc1cc2ccccc2c2ccccc12", "GI50": 7.23, "TGI": 22.5},
      {"smiles": "CC12CCCC(CC(=O)c3[nH]c4ccccc4c31)C2", "note": "(stereo not given)", "GI50": 0.879, "TGI": 18.4},
      {"smiles": "CN1C(NC(=O)c2ccc(Cl)nc2)=NS(=O)(=O)c2cc(Cl)ccc21", "GI50": "> 100", "TGI": "> 100"},
      {"smiles": "Cc1cc(C2CCCCC2)n(O)c(=O)c1", "GI50": 2.26, "TGI": "> 100"},
      {"smiles": "CN(C)C(=S)SN(C)C(=O)Nc1ccccc1", "TGI": "> 74.7"},
      {"smiles": "Cc1[nH]c(N=Nc2ccccc2)nc1N=Nc1ccccc1", "GI50": 2.75, "TGI": 10.2},
      {"smiles": "COc1ccc(-c2cc3c(nn2)-c2ccccc2C3=O)cc1", "GI50": "> 100", "TGI": "> 100"},
      {"smiles": "N#Cc1cnsc1", "TGI": "> 100"},
      {"smiles": "COc1ccc(S(=O)(=O)N(Cc2ccc3c(n2)C=CC(C)(C)O3)C2CCC2)cc1OC", "GI50": "< 0.01", "TGI": 0.374},
      {"smiles": "C[C@]12CC[C@@H]3c4ccc(O)cc4CC[C@H]3[C@@H]1CC[C@@H]2NS(=O)(=O)c1ccc(C(F)(F)F)cc1", "GI50": 1.95, "TGI": 3.77},
      {"smiles": "COc1ccc(C2CC(=O)c3c(O)c(OC)c(OC)c(OC)c3O2)c(O)c1", "note": "(stereo not given)", "GI50": 0.839, "TGI": "> 100"},
      {"smiles": "CC(=O)c1ccc(NC(=O)/C(Cc2ccccn2)=N/NC(=O)C[N+](C)(C)C)cc1", "TGI": "> 100"},
      {"smiles": "O=C(CCCSc1nc(-c2ccc(Cl)cc2)cc(-c2ccc(Cl)cc2)n1)NO", "GI50": 0.971, "TGI": 13.1}
    ]},
    {"test_system": "NCI-H23 lung", "experiment": "NCI anticancer screen, dose series, 48 h", "units": {"GI50": "µM"}, "values": [
      {"smiles": "COc1ccc(/C(=N/Nc2ccc([N+](=O)[O-])cc2)Sc2cc(Cl)c(C)cc2S(N)(=O)=O)cc1", "GI50": 4.69, "TGI": "9.77 µM"},
      {"smiles": "NC(N)=NC(N)=Nc1cc2ccccc2c2ccccc12", "GI50": 12.3, "TGI": "29.7 µM"},
      {"smiles": "CC12CCCC(CC(=O)c3[nH]c4ccccc4c31)C2", "note": "(stereo not given)", "GI50": 2.07, "TGI": "> 63.1 µM"},
      {"smiles": "CN1C(NC(=O)c2ccc(Cl)nc2)=NS(=O)(=O)c2cc(Cl)ccc21", "GI50": "> 100", "TGI": "> 100 µM"},
      {"smiles": "Cc1cc(C2CCCCC2)n(O)c(=O)c1", "GI50": 3.03, "TGI": "> 100 µM and 64.8 µM"},
      {"smiles": "CN(C)C(=S)SN(C)C(=O)Nc1ccccc1", "TGI": "> 80.5 µM"},
      {"smiles": "Cc1[nH]c(N=Nc2ccccc2)nc1N=Nc1ccccc1", "GI50": 3.28, "TGI": "> 36.3 µM"},
      {"smiles": "COc1ccc(-c2cc3c(nn2)-c2ccccc2C3=O)cc1", "GI50": "> 100", "TGI": "> 100 µM"},
      {"smiles": "N#Cc1cnsc1", "TGI": "> 100 µM"},
      {"smiles": "COc1ccc(S(=O)(=O)N(Cc2ccc3c(n2)C=CC(C)(C)O3)C2CCC2)cc1OC", "GI50": 0.0145, "TGI": "1.05 µM"},
      {"smiles": "C[C@]12CC[C@@H]3c4ccc(O)cc4CC[C@H]3[C@@H]1CC[C@@H]2NS(=O)(=O)c1ccc(C(F)(F)F)cc1", "GI50": 2.08, "TGI": "5.43 µM"},
      {"smiles": "COc1ccc(C2CC(=O)c3c(O)c(OC)c(OC)c(OC)c3O2)c(O)c1", "note": "(stereo not given)", "GI50": 0.392, "TGI": "18.6 µM"},
      {"smiles": "CC(=O)c1ccc(NC(=O)/C(Cc2ccccn2)=N/NC(=O)C[N+](C)(C)C)cc1", "TGI": "> 100 µM"},
      {"smiles": "O=C(CCCSc1nc(-c2ccc(Cl)cc2)cc(-c2ccc(Cl)cc2)n1)NO", "GI50": 1.63, "TGI": "10.4 µM"}
    ]}
  ]
}
